Target: T1, CkGH47 L310S (Caulobacter sp. K31, UniProt B0SWV2, L310S)
T1 sequence (B0SWV2 25-462 L310S): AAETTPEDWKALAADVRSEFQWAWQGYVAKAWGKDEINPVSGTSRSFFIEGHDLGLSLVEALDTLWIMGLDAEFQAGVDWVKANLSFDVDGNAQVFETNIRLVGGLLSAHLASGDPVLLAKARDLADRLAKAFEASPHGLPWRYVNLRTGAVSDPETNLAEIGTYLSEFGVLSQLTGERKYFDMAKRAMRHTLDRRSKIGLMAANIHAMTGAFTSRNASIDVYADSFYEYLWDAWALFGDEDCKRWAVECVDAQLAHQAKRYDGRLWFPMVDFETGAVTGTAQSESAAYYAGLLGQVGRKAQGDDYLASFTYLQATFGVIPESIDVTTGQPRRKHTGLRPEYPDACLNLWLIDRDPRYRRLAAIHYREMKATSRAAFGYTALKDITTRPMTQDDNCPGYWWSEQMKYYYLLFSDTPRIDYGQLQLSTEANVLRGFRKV
Experiment: Isothermal titration calorimetry
Type: binding, Caulobacter K31 strain
Text: Trans-Cyclosulfamidate Cyclitols Males et al.
Figure S6. Isothermal titration calorimetry binding thermodynamics between CkGH47 L310S and 6. A. raw data injection profile;
B. Titration curve. N = 1.01 ± 0.02 sites, ΔH = -7.39 ± 0.19 kcal mol-1.
Figure S7. Overlay of the human GH47 α-1,2-mannosidase structures highlighting the conserved active site. Crystal structure of ERManI is in orange (PDB ID: 1FMI); the remaining structures were predicted by Alphafold[5], in light blue is GMIB, in dark blue is GMIA, in purple is GMIC, in yellow is EDEM2, in red is EDEM3 and in pink is EDEM1. A. The crystal structure from this work of CkGH47 and 3 is in green. Residues annotated according to the numbering of CkGH47. B. The human GH47 enzymes are superposed minus the CkGH47 enzyme; the residues are annotated according to the numbering of HsERManI. […]
2.1 Biochemical and biological methods
To obtain Michaelis-Menten kinetics
Lastly, to achieve an inhibition constant, the
The gradient of the graph, V0/Vi
After taking each time point, the sample was heat denatured at 95 °C for 5 minutes. The reactions were conducted in triplicate and averaged. […]
microplate spectrophotometer (BioTek). The mannose detection kit (Megazyme) was used to detect […]
dehydrogenase, was monitored at 340 nm. The absorbance after hexokinase was added to the mixture […]
2.1.2 Isothermal titration calorimetry
MicroCal ITC200 calorimeter at 25 °C over 20 injections. The experiment was duplicated to obtain a […]
the MicroCal PEAK-ITC analysis software.
2.2 Crystallographic data collection and refinement of CkGH47
3′ and the reverse primer was 5′-[…]-3′. Protein production and purification was followed as described previously.[3]
Reference data in the form of a
Refinement of the model was conducted […]
conformation was conducted using […]. Details of the data collection and refinement statistics […]
Figures of the structure were produced by using CCP4mg.

[1] = isothermal titration calorimetry

Work on `O=S1(=O)N[C@@H]2[C@@H](O)[C@@H](O)[C@H](O)[C@@H](CO)[C@H]2O1` [compound 6, 1,6-trans-manno-cyclosulfamidate] yielded a Kd of 970 nM, an N [1] of 1.01 ± 0.02 sites and a ΔH [1] of -7.39 ± 0.19 kcal/mol.

From publication PMC10685318, “Trans-cyclosulfamidate mannose-configured cyclitol allows isoform-dependent inhibition of GH47 α-D-mannosidases through a bump–hole strategy” (Chemical Science, 2023)
